The record followed here is PubChem BioAssay AID687022 (Broad Institute, 2013).

Activity calls are given as the source filed them.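 The calls were made as follows: active = Fitted curve of melting temperature shift crosses the 1.0 threshold at or below the sample's highest valid tested concentration; inconclusive = Flat fit with activity 30 to 70, or invalid fit; inactive = Opposite direction, flat within 30, or no crossing.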 Bounds are passed on as bounds.

For the assay, the target named is Fibroblast growth factor 22 (Homo sapiens) (UniProt Q9HCT0). Put plainly: FGF22 ligand-induced thermal stabilization – biophysical, thermal shift, cherry-pick, FGF22 synaptogenesis inhibitor project, dose response (AID 687022). The following applies: recombinant FGF22 thermal shift, SYPRO orange melting.
Sequence of Fibroblast growth factor 22 (Homo sapiens) (Q9HCT0 whole entry, looked up): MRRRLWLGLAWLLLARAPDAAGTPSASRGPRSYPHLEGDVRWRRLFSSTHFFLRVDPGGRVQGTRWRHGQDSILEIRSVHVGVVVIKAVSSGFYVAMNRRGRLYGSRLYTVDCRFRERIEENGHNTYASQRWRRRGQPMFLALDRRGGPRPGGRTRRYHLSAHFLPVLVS

For the compound `CCN(CC)c1ccc2cc(S(=O)(=O)c3ccc(Cl)cc3)c(=O)oc2c1`, the AbsAC1 (concentration giving Tm-shift threshold 1.0) was 5.6 µM. The value for `CN1C(=O)c2cc(NC(=O)c3cccc(F)c3)ccc2OC[C@H]2O[C@@H](CC(=O)NCc3ccccc3)CC[C@H]21` was 3.24 µM; that for `C/C(=N\NC(=O)c1cccc(S(=O)(=O)N2CCOCC2)c1)c1ccc(OC(F)F)cc1` was 21.9 µM; that for `COc1ccc(N2C(=O)C(CC(=O)Nc3ccccc3)N(Cc3ccc4c(c3)OCO4)C2=O)cc1` (stereo not given) was 6.04 µM.

Take `C[C@@H]1CN([C@@H](C)CO)C(=O)c2cc(NC(=O)Nc3ccc(C(F)(F)F)cc3)ccc2O[C@@H]1CN(C)Cc1ccc(C(=O)O)cc1`: the AbsAC1 (concentration giving Tm-shift threshold 1.0) is 18.1 µM. In the case of `CCOC(=O)c1c(C)[nH]c(C)c1C(=O)COC(=O)/C=C/c1ccccc1[N+](=O)[O-]`, the AbsAC1 (concentration giving Tm-shift threshold 1.0) was 23.9 µM. With `COc1cc(/C=N/NC(=O)CCn2c3ccccc3c3ccccc32)ccc1O` the figure was 15.9 µM; with `CCCOC(=O)c1ccc(Oc2cn[nH]c2-c2ccc(O)cc2O)cc1`, 18.6 µM; with `Cc1ccc2nc(-c3ccc(NC(=O)COCC(=O)O)cc3)sc2c1`, 3.64 µM. The value for `O=C(CCc1c[nH]c2ccccc12)Nc1ccc(Oc2cccnc2)cc1` was 7.99 µM; that for `Cc1cc(NC(=O)Nc2ccc3c(ccn3C)c2)sn1` was 3.42 µM. As to `CN(NC1OC(=O)c2ccccc21)c1ncc(C(F)(F)F)cc1Cl` (stereo not given), the AbsAC1 (concentration giving Tm-shift threshold 1.0) was 29.3 µM. With `O=[N+]([O-])c1ccc(Nc2ccccc2)nc1` the figure was 5.31 µM; with `CCOc1ccc(-c2cc(C(=O)N/N=C/c3cccnc3)c3ccccc3n2)cc1`, 13 µM. On to `CCOc1ccc(N2C(=O)C(CC(=O)Nc3ccc(F)cc3)N(Cc3ccccn3)C2=S)cc1` (stereo not given), for which the AbsAC1 (concentration giving Tm-shift threshold 1.0) was 9.4 µM. The value for `COc1cc(NC(=O)C2CCC(CNS(=O)(=O)c3csc(C(N)=O)c3)CC2)cc(OC)c1` (stereo not given) was 5.8 µM; that for `Nc1cccc(-c2nc3ccc(C(=O)c4ccccc4)cc3[nH]2)c1` was 1.15 µM. Consider `CCOC(=O)c1sc(N2C(=O)C(O)=C(C(=O)c3ccco3)C2c2ccc([N+](=O)[O-])cc2)nc1C` (stereo not given), for which the AbsAC1 (concentration giving Tm-shift threshold 1.0) was 5.28 µM. With `COc1cccc(NC(=O)N(C)C[C@@H]2Oc3cc(-c4ccccc4F)ccc3S(=O)(=O)N([C@@H](C)CO)C[C@H]2C)c1` the figure was 16.3 µM; with `Cc1noc(NS(=O)(=O)c2ccc(NC(=O)c3cccc(S(=O)(=O)N(C)c4ccccc4)c3)cc2)c1C`, 4.7 µM. With `CC(=O)Nc1ccc(/C(C)=N/Nc2nc(Nc3ccccc3)nc(N3CCOCC3)n2)cc1` the figure was 7.91 µM; with `COC(=O)C1=C(CS(=O)(=O)c2cc(OC)ccc2OC)NC(=O)NC1c1ccc(O)c(OC)c1` (stereo not given), 3.09 µM. With `CCc1nnc(NS(=O)(=O)c2ccc(Nc3ccc([N+](=O)[O-])c4nonc34)cc2)s1` the figure was > 5 µM (inactive). For the compound `O=C(Nc1cccnc1)c1ccc(NS(=O)(=O)c2cccc([N+](=O)[O-])c2)cc1`, the AbsAC1 (concentration giving Tm-shift threshold 1.0) is 8.48 µM. `COc1cccc(NC(=O)N(C)C[C@@H]2Oc3cc(-c4ccccc4F)ccc3S(=O)(=O)N([C@@H](C)CO)C[C@@H]2C)c1`: the AbsAC1 (concentration giving Tm-shift threshold 1.0) was 2.97 µM. Take `O=C(O)c1ccccc1NS(=O)(=O)c1ccc2ccccc2c1`: the AbsAC1 (concentration giving Tm-shift threshold 1.0) was 4.33 µM. The value for `CCOC(=O)N1CCN(C(=O)CCCCCn2c(=S)[nH]c3ccsc3c2=O)CC1` was 13.8 µM; that for `N#Cc1c(-c2ccccc2)nc(-c2ccncc2)[nH]c1=O` was 30.3 µM. With `CC(=O)Nc1cccc(C(=O)N/N=C/c2c[nH]c3ccccc23)c1` the figure was 2.4 µM. The value for `O=c1c(O)c(-c2cc(O)c(O)c(O)c2)oc2cc(O)cc(O)c12` was 4.37 µM; that for `O=S(=O)(O)c1cccc2cccc(Nc3ccccc3)c12` was 9.29 µM.

For the compound `S=C(Nc1ccc(N2CCOCC2)cc1)Nc1ccc2snnc2c1`, the AbsAC1 (concentration giving Tm-shift threshold 1.0) is 9.95 µM. The value for `O=C(N/N=C/c1ccc(Cl)c(Cl)c1)c1ccc2nc[nH]c2c1` was 2.35 µM; that for `CC(C)CC(=O)n1sc(NC(=O)c2ccccc2)nc1=O` was 6.61 µM. On to `COc1ccc(-c2cn(CC[C@H]3CC[C@H](NC(=O)Nc4ccc(F)cc4)[C@@H](CO)O3)nn2)cc1`, for which the AbsAC1 (concentration giving Tm-shift threshold 1.0) was 18 µM. The value for `O=[N+]([O-])c1ccc(Nc2cccc(F)c2)nc1` was 3.78 µM.

Take `COc1ccccc1CNC(=O)C[C@H]1CC[C@@H]2[C@H](COC[C@H](O)CN2C(=O)Nc2ccc(Cl)cc2)O1`: the AbsAC1 (concentration giving Tm-shift threshold 1.0) is 30.5 µM. On to `Cc1ccc(-c2n[nH]c(=S)n2/N=C/c2c(C)[nH]n(-c3ccccc3)c2=O)cc1`, for which the AbsAC1 (concentration giving Tm-shift threshold 1.0) is 4.65 µM.

For the compound `C[C@H]1CN([C@@H](C)CO)S(=O)(=O)c2ccc(-c3cccc(F)c3)cc2O[C@H]1CN(C)C(=O)Nc1cc(F)ccc1F`, the AbsAC1 (concentration giving Tm-shift threshold 1.0) was 6.67 µM. With `CC(C)CCNC(=O)c1onc(CSc2ccncc2)c1C(=O)NCCC(C)C` the figure was 3.89 µM.

Take `COc1ccc(N(C)S(=O)(=O)c2cccc(C(=O)Nc3ccc(N4CCOCC4)cc3)c2)cc1`: the AbsAC1 (concentration giving Tm-shift threshold 1.0) is 9 µM.

`O=C(O)c1cccc(NS(=O)(=O)c2ccc(Cl)c(C(=O)Nc3cccc([N+](=O)[O-])c3)c2)c1`: the AbsAC1 (concentration giving Tm-shift threshold 1.0) was 11.9 µM. With `CC(=O)Nc1ccc(NC(=O)Nc2ccccc2)cc1` the figure was 2.14 µM. The value for `CN1C(=O)c2cc(NC(=O)c3cccc(F)c3)ccc2OC[C@H]2O[C@@H](CC(=O)NCC3CCCCC3)CC[C@H]21` was 22.3 µM; that for `COc1ccc([N+](=O)[O-])cc1/C=N/Nc1nn[nH]n1` was 6.12 µM; that for `O=C(Cc1n[nH]c(=O)[nH]c1=O)N/N=C/c1c(O)ccc2ccccc12` was 9.89 µM. The value for `NC(=O)c1ccsc1NC(=O)COC(=O)Cc1c[nH]c2ccccc12` was 13.9 µM.

On to `C[C@H]1CN([C@@H](C)CO)S(=O)(=O)c2ccc(C3=CCCC3)cc2O[C@H]1CN(C)C(=O)Nc1ccc2c(c1)OCO2`, for which the AbsAC1 (concentration giving Tm-shift threshold 1.0) was 22.9 µM. With `O=C(Nc1ccc(O)cc1)c1cccc(Oc2ccc([N+](=O)[O-])cc2)c1` the figure was 4.32 µM. With `O=C1C(Cl)=C(NS(=O)(=O)c2ccc([N+](=O)[O-])cc2)C(=O)c2ccccc21` the figure was 7.4 µM; with `O=[N+]([O-])c1ccc2nc(-c3ccccc3)[nH]c2c1`, 3.88 µM; with `COc1ccc2c(/C=N/NS(=O)(=O)c3ccc(C)cc3)c[nH]c2c1`, 9.87 µM.

`Cc1ccc(NC(=O)O/N=C/c2cccc([N+](=O)[O-])c2)cc1`: the AbsAC1 (concentration giving Tm-shift threshold 1.0) was 17.8 µM.

Consider `O=C(Nc1ccc2c(c1)OCO2)c1ccc(NC2CC2)c([N+](=O)[O-])c1`, for which the AbsAC1 (concentration giving Tm-shift threshold 1.0) was 17.8 µM. The value for `Cc1[nH]c2ccc(C(=O)OCC(=O)Nc3cccc(S(N)(=O)=O)c3)cc2c1C` was 2.86 µM; that for `O=[N+]([O-])c1ccc2nc(NS(=O)(=O)c3ccccc3[N+](=O)[O-])sc2c1` was 6.33 µM; that for `Brc1ccccc1/C=N/Nc1ccccn1` was 9.78 µM. The value for `O=C(Nc1cc(Cl)cc(Cl)c1)N[C@@H]1CC[C@@H](CCNS(=O)(=O)c2cccc(F)c2)O[C@H]1CO` was 5.67 µM; that for `Cc1[nH]c2ccccc2c1N=Nc1cc(C(=O)O)cc(C(=O)O)c1` was 19.9 µM. With `O=C(N/N=C/c1c[nH]c2ccccc12)c1cc2ccccc2o1` the figure was 2.71 µM; with `COc1ccccc1NC(=O)Nc1cccc(NC(C)=O)c1`, 7.52 µM; with `O=C(C[C@H]1CC[C@@H]2[C@H](COC[C@H](O)CN2S(=O)(=O)c2cccc(Cl)c2)O1)Nc1ccccc1`, 1.93 µM.

Take `COc1nsnc1NS(=O)(=O)c1ccc(NC(=S)NC(=O)c2cccnc2)cc1`: the AbsAC1 (concentration giving Tm-shift threshold 1.0) was 8.95 µM.

Consider `C/C=C/c1ccc2c(c1)O[C@H](CN(C)C(=O)Nc1cc(F)ccc1F)[C@H](C)CN([C@H](C)CO)S2(=O)=O`, for which the AbsAC1 (concentration giving Tm-shift threshold 1.0) was > 42 µM (inactive).

Regarding `Cc1ccc(NC(=O)Nc2cccnc2)cc1`, the AbsAC1 (concentration giving Tm-shift threshold 1.0) is 27.1 µM.

`CCOC(=O)c1sc(NC(=O)Nc2ccccc2)cc1C`: the AbsAC1 (concentration giving Tm-shift threshold 1.0) is 10.2 µM.

Regarding `CCC(C)n1c(O)c(C(c2ccccn2)c2c(O)n(C(C)CC)c(=S)[nH]c2=O)c(=O)[nH]c1=S` (stereo not given), the AbsAC1 (concentration giving Tm-shift threshold 1.0) is 20.7 µM. With `CCCNC(=O)COC(=O)c1ccccc1C(=O)N(C)C1CCCCC1` the figure was 3.78 µM; with `O=C(NN=Cc1ccc(O)cc1O)c1ccccc1NS(=O)(=O)c1cccs1`, 32.7 µM; with `COc1ccc(C#Cc2ccc3c(c2)O[C@H](CN(C)S(=O)(=O)c2ccccc2F)[C@@H](C)CN([C@@H](C)CO)S3(=O)=O)cc1`, 14.7 µM. The value for `Nc1ccccc1N=Nc1ccccc1N` was 7.75 µM. With `O=C(CNS(=O)(=O)c1ccccc1)OCC(=O)c1c[nH]c2ccccc12` the figure was 9.88 µM; with `Cc1noc(NC(=O)c2cccc(Cl)c2Cl)c1C#N`, 32.7 µM; with `COc1cc(NS(=O)(=O)c2ccc(NS(=O)(=O)c3ccc(C)cc3)cc2)nc(OC)n1`, 3.69 µM. For the compound `N#Cc1cccc(NC(=O)c2ccc(S(=O)(=O)N3CCOCC3)cc2)c1`, the AbsAC1 (concentration giving Tm-shift threshold 1.0) is 4 µM.
